Legend:
[1] = system: rabbit serum obtained by immunizing a rabbit with the SARS-CoV strain Frankfurt 1; assay type: binding; set-up: Binding of a rabbit serum to linear peptides / Binding of a rabbit serum to looped peptides / Rabbit serum linear peptides / Rabbit serum looped peptides / Binding of a rabbit serum to linear peptides of protein N of SARS-CoV Urbani (Rabbit serum linear peptides) / Binding of a rabbit serum to looped/cyclic peptides of protein N of SARS-CoV Urbani (Rabbit serum looped peptides): unit not given here
[2] = system: antibodies in sera from SARS patients (sera 1a, 1b, 2, 6, 37, 62, London, SARS-yellow, SARS-green); assay type: binding, human; set-up: Binding of serum 6 to linear peptides of protein X1 of SARS-CoV Urbani / Binding of serum 37 to linear peptides of protein X1 of SARS-CoV Urbani / Binding of serum 6 to looped/cyclic peptide (PEPSCAN-ELISA) / Binding of serum 37 to looped/cyclic peptide (PEPSCAN-ELISA) / Binding of serum 37 to looped/cyclic peptides of protein X1 of SARS-CoV Urbani / Binding of serum 6 to linear peptides of protein X2 / Binding of serum 37 to linear peptides of protein X2 / Binding of serum 37 to looped/cyclic peptides of protein X2 of SARS-CoV Urbani / Binding of serum 6 to linear peptides of protein M of SARS-CoV Urbani / Binding of serum 37 to linear peptides of protein M of SARS-CoV Urbani / Binding of serum 6 to looped/cyclic peptides of protein M of SARS-CoV Urbani / Binding of serum 37 to looped/cyclic peptides of protein M of SARS-CoV Urbani / Binding of serum 6 to linear peptides of protein X3 of SARS-CoV Urbani / Binding of serum 37 to linear peptides of protein X3 of SARS-CoV Urbani / Binding of serum 37 to looped/cyclic peptides of protein X3 of SARS-CoV Urbani / Binding of serum 6 to linear peptides of protein X4 of SARS-CoV Urbani / Binding of serum 37 to linear peptides of protein X4 of SARS-CoV Urbani / Binding of serum 37 to looped/cyclic peptides of protein X4 of SARS-CoV Urbani / Binding of serum 6 to linear peptides of protein X5 of SARS-CoV Urbani / Binding of serum 37 to linear peptides of protein X5 of SARS-CoV Urbani / Binding of serum 37 to looped/cyclic peptides of protein X5 of SARS-CoV Urbani / Binding of serum 6 to linear peptides of protein N of SARS-CoV Urbani / Binding of serum 37 to linear peptides of protein N of SARS-CoV Urbani / Binding of serum 6 to linear peptide (PEPSCAN-ELISA) / Binding of serum 1a to looped/cyclic peptides of protein N of SARS-CoV Urbani / Binding of serum 1b to looped/cyclic peptides of protein N of SARS-CoV Urbani / Binding of serum 2 to looped/cyclic peptides of protein N of SARS-CoV Urbani / Binding of serum 6 to looped/cyclic peptides of protein N of SARS-CoV Urbani / Binding of serum 37 to looped/cyclic peptides of protein N of SARS-CoV Urbani / Binding of serum 62 to looped/cyclic peptides of protein N of SARS-CoV Urbani / Binding of serum London to looped/cyclic peptides of protein N of SARS-CoV Urbani / Binding of serum SARS-green to looped/cyclic peptides of protein N of SARS-CoV Urbani: unit not given here
[3] = system: recombinant human anti-SARS-CoV antibody 03-018; assay type: binding; set-up: Binding of antibody 03-018 to linear peptides of the N protein of SARS-CoV Urbani / Binding of antibody 03-018 to looped/cyclic peptides of the N protein of SARS-CoV Urbani: unit not given here
[4] = system: control sera (pooled serum of ten healthy LUMC hospital workers; commercial negative donor pooled serum from the Dutch bloodbank); assay type: binding, human; set-up: Binding of Control serum LUMC to linear peptides / Binding of Control serum Blood-bank to linear peptides / Binding of Control serum LUMC to looped peptides / Binding of Control Serum Blood-Bank to Looped peptides / Binding of Control serum LUMC to linear peptides of the protein M of SARS-CoV Urbani / Binding of Control serum Blood-bank to linear peptides of the protein M of SARS-CoV Urbani / Binding of Control serum LUMC to looped peptides of the protein M of SARS-CoV Urbani / Binding of Control Serum Blood-Bank to Looped peptides of the protein M of SARS-CoV Urbani: unit not given here

Row | Sequence | Binding of a rabbit serum to linear peptides of protein N of SARS-CoV Urbani (Rabbit serum linear peptides) [1] | Binding of a rabbit serum to looped/cyclic peptides of protein N of SARS-CoV Urbani (Rabbit serum looped peptides) [1] | Binding of serum 1a to linear peptides of protein N of SARS-CoV Urbani [2] | Binding of serum 1a to looped/cyclic peptides of protein N of SARS-CoV Urbani [2] | Binding of serum 1b to linear peptides of protein N of SARS-CoV Urbani [2] | Binding of serum 1b to looped/cyclic peptides of protein N of SARS-CoV Urbani [2] | Binding of serum 2 to linear peptides of protein N of SARS-CoV Urbani [2] | Binding of serum 2 to looped/cyclic peptides of protein N of SARS-CoV Urbani [2] | Binding of serum 6 to linear peptides of protein N of SARS-CoV Urbani [2] | Binding of serum 6 to looped/cyclic peptides of protein N of SARS-CoV Urbani [2] | Binding of serum 37 to linear peptides of protein N of SARS-CoV Urbani [2] | Binding of serum 37 to looped/cyclic peptides of protein N of SARS-CoV Urbani [2] | Binding of serum 62 to linear peptides of protein N of SARS-CoV Urbani [2] | Binding of serum 62 to looped/cyclic peptides of protein N of SARS-CoV Urbani [2] | Binding of serum London to linear peptides of protein N of SARS-CoV Urbani [2] | Binding of serum London to looped/cyclic peptides of protein N of SARS-CoV Urbani [2] | Binding of serum SARS-green to linear peptides of protein N of SARS-CoV Urbani [2] | Binding of serum SARS-green to looped/cyclic peptides of protein N of SARS-CoV Urbani [2] | Binding of serum SARS-yellow to linear peptides of protein N of SARS-CoV Urbani [2] | Binding of serum SARS-yellow to looped/cyclic peptides of protein N of SARS-CoV Urbani [2] | further results
1 | PQIAQFAPSASAFFG | 0.1 | 0.5 | 0.2 | 0.4 | 0.1 | 0.3 | 0.2 | 0.4 | 0.1 | 0.3 | 0.6 | 0.7 | 0.6 | 0.7 | 0.5 | 0.5 | 0.6 | 0.4 | 0.6 | 0.5 | Binding of antibody 03-018 to linear peptides of the N protein of SARS-CoV Urbani [3]: 0.1; Binding of antibody 03-018 to looped/cyclic peptides of the N protein of SARS-CoV Urbani [3]: 0.2; Control Serum Blood-Bank Looped peptides [4]: 0.8; Control serum Blood-bank linear peptides [4]: 0.7; Control serum LUMC linear peptides [4]: 0.5; Control serum LUMC looped peptides [4]: 0.7
2 | PRWYFYYLGTGPEAS | 0.2 | 0.6 | 0.3 | 0.4 | 0.2 | 0.3 | 0.2 | 0.5 | 0.2 | 0.3 | 0.9 | 1.0 | 0.7 | 0.8 | 0.5 | 0.5 | 0.5 | 0.9 | 0.6 | 0.8 | Binding of antibody 03-018 to linear peptides of the N protein of SARS-CoV Urbani [3]: 0.1; Binding of antibody 03-018 to looped/cyclic peptides of the N protein of SARS-CoV Urbani [3]: 0.2; Binding of Control Serum Blood-Bank to Looped peptides [4]: 0.7; Binding of Control serum Blood-bank to linear peptides [4]: 0.7; Binding of Control serum LUMC to linear peptides [4]: 0.6; Binding of Control serum LUMC to looped peptides [4]: 0.7
3 | PSGTWLTYHGAIKLD | 0.1 | 0.0 | 0.3 | 0.2 | 0.2 | 0.1 | 0.2 | 0.2 | 0.2 | 0.1 | 1.0 | 0.4 | 0.8 | 0.3 | 0.7 | 0.3 | 0.6 | 0.1 | 0.7 | 0.1 | Binding of antibody 03-018 to linear peptides of the N protein of SARS-CoV Urbani [3]: 0.1; Binding of antibody 03-018 to looped/cyclic peptides of the N protein of SARS-CoV Urbani [3]: 0.2; Control Serum Blood-Bank Looped peptides [4]: 0.4; Control serum Blood-bank linear peptides [4]: 0.7; Control serum LUMC linear peptides [4]: 0.6; Control serum LUMC looped peptides [4]: 0.4
4 | PYGANKEGIVWVATE | 0.2 | 0.2 | 0.3 | 0.4 | 0.2 | 0.3 | 0.2 | 0.5 | 0.2 | 0.3 | 1.0 | 0.9 | 0.8 | 0.9 | 0.7 | 0.5 | 0.8 | 0.8 | 0.6 | 0.7 | Binding of antibody 03-018 to linear peptides of the N protein of SARS-CoV Urbani [3]: 0.1; Binding of antibody 03-018 to looped/cyclic peptides of the N protein of SARS-CoV Urbani [3]: 0.2; Binding of Control Serum Blood-Bank to Looped peptides [4]: 0.6; Binding of Control serum Blood-bank to linear peptides [4]: 0.7; Binding of Control serum LUMC to linear peptides [4]: 0.7; Binding of Control serum LUMC to looped peptides [4]: 0.7

— US20070128217A1 (priority 2003, published 2007)
